Measurements: article PMC8948829, “The Escherichia coli Amino Acid Uptake Protein CycA: Regulation of Its Synthesis and Practical Application in L-Isoleucine Production” (Microorganisms, 2022)

Target: T1, CycA (Escherichia coli, UniProt P0AAE0)
T1 construct: full-length native 470 aa inner-membrane permease, chromosomal cycA overexpressed from PL promoter (strain M1, MG1655 cat-PL-cycA), whole cells
T1 sequence (P0AAE0 1-470): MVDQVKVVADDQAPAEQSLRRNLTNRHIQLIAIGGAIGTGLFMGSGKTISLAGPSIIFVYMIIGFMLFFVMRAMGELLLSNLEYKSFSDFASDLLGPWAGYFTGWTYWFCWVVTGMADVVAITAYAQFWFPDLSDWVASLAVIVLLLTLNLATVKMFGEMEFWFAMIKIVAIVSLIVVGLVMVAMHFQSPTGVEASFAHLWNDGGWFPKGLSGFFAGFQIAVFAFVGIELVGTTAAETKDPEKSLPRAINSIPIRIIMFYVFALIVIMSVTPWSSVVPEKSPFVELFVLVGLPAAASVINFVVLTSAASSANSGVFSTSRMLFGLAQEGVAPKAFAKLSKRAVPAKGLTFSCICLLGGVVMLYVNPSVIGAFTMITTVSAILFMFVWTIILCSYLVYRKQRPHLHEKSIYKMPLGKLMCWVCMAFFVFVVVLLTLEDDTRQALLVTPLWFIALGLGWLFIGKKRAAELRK
Experiment: amino acid uptake (extracellular depletion), cycA-overexpressing versus wild-type cells
Format: cell-based
Settings: 50 mM, N-free M9 medium, 37 °C, 6 h; other native importers intact

CC[C@H](N)C(=O)O [AABA]
uptake rate: the uptake rate was higher in the case of the M1 strain, especially for Ala and AABA

C[C@H](N)C(=O)O [Ala]
uptake rate: the uptake rate was higher in the case of the M1 strain, especially for Ala and AABA
